Assay results as given in patent US9109041B2, “Analog compounds of analgesic peptides derived from the venom of crotalus durissus terrificus snakes, their uses, compositions, methods of preparation and purification” (priority 2004, dated 2015).

Columns and labels:
[1] = system: hyperalgesia induced by the Walker 256 tumor; test: hyperalgesia induced by the Walker 256 tumor (cancer pain); format: in vivo, rat; conditions: saline + antagonist alone i.pl. (ICI 10, nor-BNI 50, CTOP 20 μg/paw); for pain threshold, FM / pain threshold, IM: 5th day; for pain threshold, FM: 2 hours after treatment; for pain threshold, IM: before treatment; for pain threshold, BM: before injection of the tumor
From the text: (§1) The Walker 256 tumor cells were kindly provided by Prof. Dr. Rui Curi, of the Physiology and Biophysics Department of the Biomedical Science Institute of the University of São Paulo. The tumor-bearing animal was sacrificed and the tumoral tissue was removed, placed on a Petri dish containing 0.9% saline. Then, the tumor was cut in smaller parts, and transferred into a beaker containing saline. The material was triturated with a fine-cut, until the tumor is totally fragmented. Then, this material was filtered in gauze and the liquid collected in a beaker. All procedures were performed on ice. The material of the beaker was transferred to 50 ml plastic tubes and centrifuged at 4° C., for 10 minutes, at 1200 rpm. After centrifugation, the supernatant was rejected and the precipitate resuspended in saline 0.9%. For cell counts, the suspension of cells was diluted (1:100) in saline. An aliquot (200 μl) was removed and placed in a test tube containing 200 μl of 1% Trypan blue. The cell number was determined in optical microscope using Neubauer's chamber. The cellular viability was determined considering viable the light-refracting cells.
(§2) After determining the number of cells, 1 ml of the suspension, containing 1×10^7 cells, was injected by intraperitoneal route, on the right side of the rats to obtain liquid tumor (ascites).
(§3) Five days after injection, the rats with ascites were sacrificed and the ascetic fluid collected from the peritoneal cavity and placed in a test tube containing EDTA. The liquid was diluted 100 times with phosphate-buffered saline (PBS), pH 7.4. The cell count was done after dilution with Trypan blue, as described above. Tumor cell count was ascertained to 1×10^6 cells in 100 μl, by dilution with PBS. This number of cells was determined in preliminary tests for induction of cancer pain in rats. In this final cell number adjustment, the volume of antibiotic (Benzetacil®) added to the suspension (150,000 units of antibiotic/10 ml of suspension), was taken into consideration. The antibiotic was used in order to avoid microbial contamination. The cells were injected by intraplantar route into one of the rat hind paws. Control animals were injected with PBS into the contralateral paw, in the same experimental conditions.
(§4) Hyperalgesia, allodynia and spontaneous pain were determined before (BM-basal measurement) and 5 days after tumor cell injection, before (IM-initial measurement) and 2 hours after (FM-Final measurement) peptide administration.
(§5) The results were analyzed comparing the mean values of the basal and initial measurements, or of the initial and final measurements or, when determined, by comparing the mean values obtained in the different experimental groups (Tables 17, 18, 19).
(§6) For this purpose, the animals were treated with CTOP, a specific μ receptor antagonist (20 μg/paw), nor-BNI, a specific κ receptor antagonist (50 μg/paw) or with ICI 174,864, a specific δ receptor antagonist (10 μg/paw). The antagonists were injected by intraplantar route. The peptide was administered in the dose of 6 μg/kg, orally, immediately before the injection of the opioid antagonists. The results were analyzed comparing the mean values of the basal and initial measurements, or of the initial and final measurements or, when determined, by comparing the mean values obtained in the different experimental groups ( Table 20).

[2] = system: allodynia induced by the Walker 256 tumor; test: allodynia induced by the Walker 256 tumor (cancer pain); format: in vivo, rat; conditions: saline + antagonist alone i.pl. (ICI 10, nor-BNI 50, CTOP 20 μg/paw); for paw withdrawal threshold (allodynia), FM / paw withdrawal threshold (allodynia), IM: 5th day; for paw withdrawal threshold (allodynia), FM: 2 hours after treatment; for paw withdrawal threshold (allodynia), IM: before treatment; for paw withdrawal threshold (allodynia), BM: before injection of the tumor
From the text: as §1, §2, §3, §4, §5, §6

[3] = system: hyperalgesia induced by chronic constriction of the sciatic nerve; test: hyperalgesia induced by chronic constriction of the sciatic nerve (rat paw pressure test); format: in vivo; conditions: saline + antagonist alone i.pl. (ICI 10, nor-BNI 50, CTOP 20 μg/paw); for pain threshold, FM 1 h: 1 h after treatment; for pain threshold, MF 3 h: 3 h after treatment; for pain threshold, BM: before surgery; for pain threshold, IM: day 14, before treatment
Procedure: For the induction of neuropathic pain, surgery was performed in the sciatic nerve, in accordance with the method described by Bennett, G. J and Xie, Y. K. (Pain, 33:87-107, 1988). The animals were anesthetized with halothane. The sciatic nerve was exposed in the middle region of the thigh, moving away the femoral biceps muscle. Close to the trifurcation of the sciatic nerve, 7 mm of distance from the trifurcation, 4 loose ligations were performed (chromed catgut 4-0) around it, distant from each other in approximately 1 mm. The bindings were performed along the nerve, up to 4-5 mm from the initial point. The incision was sutured in layers, using silk suture thread number 4-0.
The test was applied before (BM-basal measurement) and on the 14th day after the surgery, to characterize the development of neuropathic pain.
The results were analyzed by comparing the means of the basal and initial measurements or by comparing the means of the initial and final measurements or, when determined, through the comparison of the means obtained in the different experimental groups.
For this purpose, the animals were treated with CTOP, a specific μ receptor antagonist (20 μg/paw), nor-BNI, a specific κ receptor antagonist (50 μg/paw) or with ICI 174,864, a specific δ receptor antagonist (10 μg/paw). The antagonists were injected, by intraplantar route. The peptide was administered in the dose of 5 μg/kg, orally, immediately before the injection of the opioid antagonists.
The results were analyzed comparing the mean values of the basal and initial measurements, or of the initial and final measurements or, when determined, by comparing the mean values obtained in the different experimental groups (Tables 15 and 16).

Row | Compound | pain threshold, FM [1] [g] | pain threshold, IM [1] [g] | pain threshold, BM [1] [g] | paw withdrawal threshold (allodynia), FM [2] | paw withdrawal threshold (allodynia), IM [2] | paw withdrawal threshold (allodynia), BM [2] | pain threshold, FM 1 h [3] [g] | pain threshold, MF 3 h [3] [g] | pain threshold, BM [3] [g] | pain threshold, IM [3] [g]
1 | Oc1ccc2c3c1O[C@H]1c4[nH]c5c(c4C[C@@]4(O)[C@@H](C2)N(CC2CC2)CC[C@]314)C[C@@]1(O)[C@H]2Cc3ccc(O)c4c3[C@@]1(CCN2CC1CC1)[C@H]5O4 [nor-BNI, nor-Binalthorphimine, reference compound] | 32 ± 1.66 | 33 ± 3.33 | 70 ± 2.88 | 4.41 ± 0.00 log 10 (mg × 10) | 4.41 ± 0.00 log 10 (mg × 10) | 4.97 ± 0.00 log 10 (mg × 10) | 32 ± 1.22 | 31 ± 1.00 | 72 ± 1.22 | 32 ± 1.22
2 | CTOP [reference compound] | 32 ± 1.66 | 35 ± 2.88 | 68 ± 1.66 | 4.41 ± 0.00 log 10 (mg × 10) | 4.41 ± 0.00 log 10 (mg × 10) | 4.97 ± 0.00 log 10 (mg × 10) | 30 ± 1.58 | 30 ± 1.58 | 72 ± 1.22 | 28 ± 1.22
